Earlier results in patent publication US7981605B2, “Epidermal growth factor receptor mutations” (Amgen Inc., priority 2005, dated 2011).

Experiments:
A431 tumor xenografts = conditions: athymic mice
[1] = tested on: NSCLC tumors with EGFr mutations; conditions: deletions in amino acids 746-759 region, L858R, L861Q, G719C, G719S, R776C/L858R (Lynch, Paez, Pao 2004)

Row | Molecule | formation of A431 xenografts (A431 tumor xenografts) | sensitivity of NSCLC tumors with EGFr mutations [1]
1 | panitumumab: a human IgG2 monoclonal antibody against human EGFr; human anti-EGFr antibody (Amgen) | preventing the formation of human epidermoid carcinoma A431 xenografts | –
2 | C#Cc1cccc(Nc2ncnc3cc(OCCOC)c(OCCOC)cc23)c1 [erlotinib, N-(3-ethynylphenyl)-6,7-bis(2-methoxyethoxy)-4-quinazolinamine] | – | display sensitivity
